In patent US7910611B2, “Therapeutic agent for restenosis” (Kyowa Hakko Kirin Co., Ltd., priority 2005, dated 2011):
Counter-ions that a name gives are not always drawn.

How the values were obtained:
[1] = test system: normal human aortic smooth muscle cells; experiment: Cell growth inhibition tests against human vascular smooth muscle cells (XTT); type: cell-based; details: for GI50: read-out: growth inhibitory activity in terms of the GI50 value (concentration of 50% growth inhibition), cultured 72 hours with test compound, XTT, absorbance at 490 nm
Experimental: Cell Growth Inhibition Tests Against Human Vascular Smooth Muscle Cells
As human vascular smooth muscle cells, normal human aortic smooth muscle cells (Cambrex, catalog No. C-2571) were used. HuMedia-SB2 basal medium (Kurabo Industries, Ltd., catalog No. KS-2150S) containing 5% fetal bovine serum (Kurabo Industries, Ltd., catalog No. KS-6150), 0.5 ng/mL human recombinant epidermal growth factor (Kurabo Industries, Ltd., catalog No. KS-6150), 2 ng/mL human recombinant basic fibroblast growth factor (Kurabo Industries, Ltd., catalog No. KS-6150), 5 μg/mL insulin (Kurabo Industries, Ltd., catalog number KS-6150), 50 μg/mL gentamycin (Kurabo Industries, Ltd., catalog No. KS-6150), and 50 ng/mL amphotericin B (Kurabo Industries, Ltd., catalog No. KS-6150) was used for cell culture. The cells were cultured at 37° C. in a 5% carbon dioxide atmosphere.
The normal human aortic smooth muscle cells (1000 cells/well) were seeded in each well of 96-well plates (Nunc, catalog No. 167008), and cultured overnight. Test compounds diluted stepwise were added, and the cells were further cultured for 72 hours (final volume: 100 μL/well). Fifty μL XTT labeling mixture of Cell Proliferation Kit II (XTT) (Roche Diagnostics, catalog No. 1465015) was added to each well, and the plates were incubated at 37° C. After 4 hours, absorbance at 490 nm (reference wavelength: 655 nm) was measured with a plate reader (Molecular Device, SpectraMax 340PC^384). Growth ratios of the cells in the wells treated with the test compound was calculated based on the growth ratio of the cells in the control well treated with solvent (dimethyl sulfoxide (DMSO)) for 72 hours, which was defined as 100%.

With CC(C)(C)C(=O)NC1=NN(C(=O)C(C)(C)C)C(CN)(c2ccccc2)S1 (stereo not shown) [Compound j, N-[5-Aminomethyl-4-(2,2-dimethylpropionyl)-5-phenyl-4,5-dihydro-1,3,4-thiadiazol-2-yl]-2,2-dimethylpropanamide] the GI50 [1] was under 10 µM.

CC(C)C(=O)N1N=C(NC(=O)C(C)(C)C)SC1(CCNS(C)(=O)=O)c1ccccc1 (single isomer, unassigned; (-)) [Compound d, (−)-N-[4-Isobutyryl-5-(2-methanesulfonylaminoethyl)-5-phenyl-4,5-dihydro-1,3,4-thia-diazol-2-yl]-2,2-dimethylpropanamide] gave a GI50 [1] of under 10 µM.

Work on CC(C)(C)C(=O)N1N=C(N2CCCC2=O)SC1(CCNS(C)(=O)=O)c1ccccc1 (single isomer, unassigned; (-)) [Compound c, (−)-N-{2-[3-(2,2-Dimethylpropionyl)-5-(2-oxopyrrolidin-1-yl)-2-phenyl-2,3-dihydro-1,3,4-thiadiazol-2-yl]ethyl}methanesulfonamide] yielded a melting point of 107 to 110 °C.

With CCC(=O)N1N=C(NC(=O)C(C)(C)C)SC1(CCNS(C)(=O)=O)c1ccccc1 (single isomer, unassigned; (-)) [Compound b, (−)-N-[5-(2-Methanesulfonylaminoethyl)-5-phenyl-4-propionyl-4,5-dihydro-1,3,4-thiadiazol-2-yl]-2,2-dimethylpropanamide] the GI50 [1] was under 10 µM.

CN(C)CCCS(=O)(=O)NCC1(c2ccccc2)SC(NC(=O)C(C)(C)C)=NN1C(=O)C(C)(C)C (single isomer, unassigned; (-)) [Compound n, (−)-N-[5-(3-Dimethylaminopropanesulfonylaminomethyl)-4-(2,2-dimethylpropionyl)-5-phenyl-4,5-dihydro-1,3,4-thiadiazol-2-yl]-2,2-dimethylpropanamide] showed a GI50 [1] of under 10 µM and a melting point of 92 to 95 °C.

In the case of CC(=O)N1N=C(N2CCCCC2=O)SC1(CCNS(C)(=O)=O)c1ccccc1 (single isomer, unassigned; (-)) [Compound h, (−)-N-{2-[3-Acetyl-5-(2-oxopiperidino)-2-phenyl-2,3-dihydro-1,3,4-thiadiazol-2-yl]ethyl}methanesulfonamide], the GI50 [1] is reported as under 10 µM and the melting point is reported as 169 to 171 °C.

For CN(C)CCS(=O)(=O)NCC1(c2ccccc2)SC(NC(=O)C(C)(C)C)=NN1C(=O)C(C)(C)C (single isomer, unassigned; (-)) [Compound m, (−)-N-[5-(2-Dimethylaminoethanesulfonylaminomethyl)-4-(2,2-dimethylpropionyl)-5-phenyl-4,5-dihydro-1,3,4-thiadiazol-2-yl]-2,2-dimethylpropanamide], the “inhibitory activity compared with the corresponding racemic mixture (Compound 12)” value ([1]; optically active compound versus racemic mixture) was “more potent inhibitory activities”, the GI50 [1] was under 10 µM and the melting point was 101 to 104 °C.

Molecule CCNCCS(=O)(=O)NCCC1(c2ccccc2)SC(NC(=O)C(C)(C)C)=NN1C(=O)C(C)(C)C (stereo not shown) [Compound i, N-{4-(2,2-Dimethylpropionyl)-5-[2-(2-ethylaminoethanesulfonylamino)-ethyl]-5-phenyl-4,5-dihydro-1,3,4-thiadiazol-2-yl}-2,2-dimethylpropanamide] has a GI50 [1] of under 10 µM.

CC(C)(C)C(=O)NC1=NN(C(=O)C(C)(C)C)C(CNS(=O)(=O)CCSCCN)(c2ccccc2)S1 (stereo not shown) [Compound 24, N-{5-[2-(2-Aminoethylsulfanyl)ethanesulfonylaminomethyl]-4-(2,2-dimethyl-propionyl)-5-phenyl-4,5-dihydro[1,3,4]thiadiazol-2-yl}-2,2-dimethyl-propionamide] gave a GI50 [1] of under 10 µM.

With CC(C)(C)C(=O)NC1=NN(C(=O)C(C)(C)C)C(CCCC(=O)NCCO)(c2ccccc2)S1 (stereo not shown) [Compound o, 4-[3-(2,2-Dimethylpropionyl)-5-(2,2-dimethylpropionylamino)-2-phenyl-2,3-dihydro-1,3,4-thiadiazol-2-yl]-N-(2-hydroxyethyl)butanamide] the GI50 [1] was under 10 µM.

Molecule CCNCCS(=O)(=O)NCC1(c2ccccc2)SC(NC(=O)C(C)(C)C)=NN1C(=O)C(C)(C)C (single isomer, unassigned; (-)) [Compound l, (−)-N-[4-(2,2-Dimethylpropionyl)-5-(2-ethylaminoethanesulfonylaminomethyl)-5-phenyl-4,5-dihydro-1,3,4-thiadiazol-2-yl]-2,2-dimethylpropanamide] has a GI50 [1] of under 10 µM.

CC(=O)N1N=C(N2CCCC2=O)SC1(CCNS(C)(=O)=O)c1ccccc1 (stereo not shown) [Compound g, N-{2-[3-Acetyl-5-(2-oxopyrrolidin-1-yl)-2-phenyl-2,3-dihydro-1,3,4-thiadiazol-2-yl]-ethyl}methanesulfonamide] showed a melting point of 137 to 140 °C.

CCC(=O)N1N=C(N2CCCC2=O)SC1(CCNS(C)(=O)=O)c1ccccc1 (single isomer, unassigned; (-)) [Compound e, (−)-N-{2-[5-(2-Oxopyrrolidin-1-yl)-2-phenyl-3-propionyl-2,3-dihydro-1,3,4-thiadiazol-2-yl]ethyl}methanesulfonamide] showed a GI50 [1] of under 10 µM and a melting point of 188 to 191 °C.

Work on CC(C)(C)C(=O)NC1=NN(C(=O)C(C)(C)C)C(CCNS(C)(=O)=O)(c2ccccc2)S1 (single isomer, unassigned; (-)) [Compound a, (−)-N-[4-(2,2-Dimethylpropionyl)-5-(2-methanesulfonylaminoethyl)-5-phenyl-4,5-dihydro-1,3,4-thiadiazol-2-yl]-2,2-dimethylpropanamide] yielded a GI50 [1] of under 10 µM.

CC(C)(C)C(=O)NC1=NN(C(=O)C(C)(C)C)C(CN)(c2ccccc2)S1 (stereo not shown) (as salt: hydrochloride) [Compound j, N-[5-Aminomethyl-4-(2,2-dimethylpropionyl)-5-phenyl-4,5-dihydro-1,3,4-thiadiazol-2-yl]-2,2-dimethylpropanamide] showed a melting point of 175 to 182 °C.

In the case of C=CS(=O)(=O)NCC1(c2ccccc2)SC(NC(=O)C(C)(C)C)=NN1C(=O)C(C)(C)C (stereo not shown) [Compound k, N-[4-(2,2-Dimethylpropionyl)-5-ethenesulfonylaminomethyl-5-phenyl-4,5-dihydro-1,3,4-thiadiazol-2-yl]-2,2-dimethylpropanamide], the GI50 [1] is reported as under 10 µM.

In the case of CC(=O)N1N=C(NC(=O)C(C)(C)C)SC1(CCNS(C)(=O)=O)c1ccccc1 (single isomer, unassigned; (-)) [Compound f, (−)-N-[4-Acetyl-5-(2-methanesulfonylaminoethyl)-5-phenyl-4,5-dihydro-1,3,4-thiadiazol-2-yl]-2,2-dimethylpropanamide], the melting point is reported as 187 to 190 °C.
